According to publication PMC3879379, “Gold(III)-Dithiocarbamato Peptidomimetics in the Forefront of the Targeted Anticancer Therapy: Preclinical Studies against Human Breast Neoplasia” (PLoS ONE, 2014):
Where two headings read alike, the source gives them in different places.

What was measured:
[1] = test system: MDA-MB-231 cells; assay: MTT assay with ROS scavenger Trolox (pretreatment or co-treatment); type: cell-based, human; conditions: for reduction of IC50 by co-treatment with Trolox: MDA-MB-231, 24 h co-treatment with Trolox 100 µM
Method: In order to investigate whether cell death is affected by free radicals produced in situ by our compounds, cells were seeded in quadruplicate and treated with both complexes and Trolox. We first pretreated cells for 1 h with Trolox at 100 µM and after changing medium, treated cells with compounds and incubated for an additional 24 h. Alternatively, we co-treated cells for 24 h with both compounds and Trolox (100 µM), followed by MTT assay.

[2] = target: T1, Purified human 20S proteasome (Homo sapiens, UniProt P28072+P28074+Q99436); assay: Proteasome activity assay on purified 20S proteasome (fluorogenic substrates); type: biochemical; conditions: 2 h incubation
T1 construct: purchased Boston Biochem (Boston, MA)
Method: Purified human 20S proteasome (0.5 nM) was incubated in triplicate with three different proteasomal fluorogenic substrates (20 µM) and each compound (dissolved in DMSO) at various concentrations ranging from 0.1 to 10 µM (or an equivalent volume of solvent DMSO as a control) in 100 µL of assay buffer [20 mM Tris-HCl (pH 7.5)].

[3] = test system: MDA-MB-231 cells; assay: Annexin-V FITC/PI apoptosis assay (flow cytometry); type: cell-based, human; conditions: MDA-MB-231, 20 µM; for cells in early stage apoptosis: 16 or 24 h (time not specified)
Method: Apoptosis indexes were measured using the Annexin-V fluorescein isothiocyanate (FITC) apoptosis detection kit I from by BD Pharmingen. MDA-MB-231 cells were grown to around 75% confluence, treated with gold-based complexes (20 µM) or solvent as a control for 16 or 24 h, harvested by means of a scraper and centrifugation. Cell pellets were washed twice with ice cold PBS and cells were then resuspended in 1× binding buffer at a concentration of 1•10^6 cells/mL. 100 µL of the suspension was then transferred to a 5 mL flow cytometry tube and 5 µL FITC Annexin V and 5 µL PI for double stained samples (either 5 µL of FITC Annexin V or 5 µL of PI for controls) were added. Mixtures were gently vortexed and incubated for 15 min at RT in the dark followed by addition of 400 µL 1× binding buffer to each tube. Then, analysis by flow cytometry occurred within 1 h at the Microscopy, Imaging and Cytometry Resources (MICR) Core at the Karmanos Cancer Institute, Wayne State University. Data (Figure 3) are presented as density plots of Annexin-V (x-axis) and propidium iodide (PI, y-axis) stainings. Unstained cells, cells stained with either PI or FITC Annexin-V only, and untreated cells stained with both PI and Annexin-V were used to set up compensation and quadrants. The excitation wavelength was 488 nm and the detection wavelengths were 530±15 and 620±21 nm for Annexin V and PI, respectively. Cells staining negative for both markers were considered viable since Annexin V and PI are both cell membrane impermeable while cells staining positive for both markers were considered in late apoptosis. Cells staining positive for Annexin only were considered in early apoptosis whereas cells staining positive for PI only were considered dead by a necrotic pathway. Percentages of viable, apoptotic, and necrotic cells are reported in the corner of each quadrant (Figure 3).

[4] = test system: MDA-MB-231 cells; assay: Cellular morphology (phase contrast imaging); type: cell-based, human; conditions: MDA-MB-231, 24 h
Source text: A Zeiss (Thornwood, NY) Axiovert 25 microscope was used for cellular morphology microscopic imaging with phase contrast.

[5] = target: T2, proteasome of MDA-MB-231 cell extract (Homo sapiens, UniProt P28072+P28074+Q99436); assay: Proteasome activity assay on MDA-MB-231 whole-cell extract; type: biochemical; conditions: 2 h incubation
T2 construct: endogenous in cells; host or cells: MDA-MB-231 whole-cell extract
T2 sequence (P28074 60-263): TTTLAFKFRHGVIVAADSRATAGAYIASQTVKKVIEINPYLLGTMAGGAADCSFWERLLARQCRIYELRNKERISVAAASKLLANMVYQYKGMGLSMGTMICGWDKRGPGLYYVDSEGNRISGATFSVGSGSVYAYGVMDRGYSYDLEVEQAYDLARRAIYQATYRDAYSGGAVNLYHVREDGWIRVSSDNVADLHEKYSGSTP
T2 sequence (P28072 1-239): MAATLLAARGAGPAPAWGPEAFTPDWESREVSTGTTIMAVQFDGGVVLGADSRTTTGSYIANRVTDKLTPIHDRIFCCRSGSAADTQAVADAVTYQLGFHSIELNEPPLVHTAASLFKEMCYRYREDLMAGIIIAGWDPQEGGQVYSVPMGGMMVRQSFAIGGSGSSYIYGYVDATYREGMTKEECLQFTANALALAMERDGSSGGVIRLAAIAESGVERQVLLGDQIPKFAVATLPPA
T2 sequence (Q99436 44-277): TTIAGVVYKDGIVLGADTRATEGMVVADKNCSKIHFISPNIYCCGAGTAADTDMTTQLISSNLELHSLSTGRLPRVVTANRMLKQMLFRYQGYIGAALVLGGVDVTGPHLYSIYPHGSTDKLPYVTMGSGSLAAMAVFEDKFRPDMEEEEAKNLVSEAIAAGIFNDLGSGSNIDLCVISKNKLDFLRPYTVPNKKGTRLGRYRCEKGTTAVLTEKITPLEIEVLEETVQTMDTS
Method: Likewise, MDA-MB-231 whole-cell extract (10 µg/well) was incubated in quadruplicate with each complex and each fluorogenic substrate in 100 µL of assay buffer [20 mM Tris-HCl (pH 7.5)]. Fluorescence data were acquired after 1 hour and 2 hours incubation at 37°C. The whole-cell extract was prepared as described elsewhere.

[6] = test system: MDA-MB-231 xenografts; assay: Immunohistochemical p27 and TUNEL staining of tumor samples; type: in vivo, female athymic nude mice; conditions: xenograft tumors, 1 mg kg^−1 d^−1
Method: IHC was performed using a previously reported protocol. Briefly, tumor samples were paraffin-embedded by the Pathology Core at Karmanos Cancer Institute (Detroit, MI, USA). Samples were then cut and stained for p27 or TUNEL by the BioBank at William Beaumont Hospital (Royal Oak, MI, USA). Anti-p27 (VP-P951) was from Vector Laboratories (Burlingame, CA, USA) and was used at a 1∶30 dilution followed by detection by DAKO. Samples were counterstained with DAB/Hematoxylin. TUNEL staining was performed using anti-digoxigenin and peroxidase substrate, followed by counterstaining with methyl green. In both cases, brown colored cells were considered positive.

[7] = target: T3, proteasomal CT-like activity (Homo sapiens, UniProt P28074); assay: Proteasomal CT-like activity in xenograft tumor tissue; type: in vivo, female athymic nude mice; conditions: xenograft tumors, 1 mg kg^−1 d^−1, after 27 days of treatment
T3 construct: from tissue; host or cells: MDA-MB-231 xenograft tumour tissue from female athymic nude mice
T3 sequence (P28074 60-263): T2 sequence (P28074 60-263)
Method: (§1) Seven-week-old female athymic nude mice were purchased from Harlan Laboratories (Indianapolis, USA) and housed in accordance with protocols approved by the Institutional Laboratory Animal Care and Use Committee of Wayne State University. Human breast cancer MDA-MB-231 cells suspended in 0.1 mL of serum-free DMEM/F12 cell growth medium were inoculated subcutaneously (s.c.) into the right flank of each mouse. When tumors reached a volume of around 115 mm^3, the mice were randomly allocated into three groups (seven mice per group) and treated five days a week by s.c. injection of either vehicle [1∶1∶1 v/v PBS, DMSO, Cremophore/ethanol (1∶4)] or medium containing 1.0 mg/kg of AuD6 or AuD8. Tumor length (L) and width (W) were measured every other day using a caliper, and tumor volumes were evaluated according to the standard formula (π ⋅ L ⋅ W^2)/6. Mouse weights were monitored weekly. Four mice per group were sacrificed after 27 days of treatment, or when tumors reached ∼1,800 mm^3, and the remaining three mice per group were sacrificed after 13 days to observe any early effects of treatments. The tumors were collected and weighed. Tumor tissues were used to measure proteasome inhibition and caspase-3 activation by enzymatic activity assays and by Western blot analysis.

[8] = test system: MDA-MB-231 cells; assay: MTT cell proliferation assay; type: cell-based, human; conditions: for IC50: read-out: IC50 (MTT, inhibition of cell proliferation)
Method: Human breast cancer MDA-MB-231 cells were obtained from American Type Culture Collection (Manassas, VA) and grown in DMEM/F12 supplemented with 10% fetal bovine serum, 1 mM sodium pyruvate, 10 mM HEPES, 100 U/mL penicillin and 100 µg/mL streptomycin. Cells were grown in a humidified incubator with 5% CO2 at 37°C. Cells were seeded in octuplicate in 96-well plates and grown to 70%–80% confluence, followed by treatment with DMSO (control) or each compound (dissolved in DMSO) in fresh medium at the indicated concentrations. After 24 or 72 hours incubation at 37°C, inhibition of cell proliferation was measured by MTT assay, as previously described. The cytotoxicity of the compounds was quantified as the percentage of cells surviving relative to untreated cells. Four MTT tests for each compound were performed in order to evaluate the corresponding IC50 values.

[9] = test system: p27; assay: Western blot of p27 in treated cells; type: cell-based, human; conditions: MDA-MB-231, 24 h
Method: MDA-MB-231 cells were grown to around 75% confluence, treated with gold-based complexes or solvent as a control, harvested, and lysed. Cell lysates (30 µg/lane) were separated by SDS-PAGE and transferred to a nitrocellulose membrane. After blocking of non-specific binding (5% non-fat dry milk in Tris-Buffered Saline with Tween 20-TBST), membranes were incubated overnight at 4°C with primary antibodies, followed by washing with TBST and incubation for 2 h with secondary antibodies. Bands of interest were visualized using HyGLO Chemiluminescent HRP Antibody detection reagent, HyBlot Chemiluminescence films (Denville Scientific Inc.; Metuchen, NJ) and a HOPE Micro-MAX film processor.

[10] = test system: MDA-MB-231 xenografts; assay: Human breast tumor xenograft growth; type: in vivo, female athymic nude mice; conditions: 1.0 mg kg^−1 d^−1 s.c.
Method: as §1, with “analysis. […]” for “analysis.”

[11] = read-out: IC50 Chymotrypsin-like activity
[12] = read-out: IC50 PGPH-like activity
[13] = read-out: IC50 Trypsin-like activity

reduction of IC50 by co-treatment with Trolox [1]	IC50 [2, 11] [nM]	IC50 [2, 12] [nM]	IC50 [2, 13] [nM]	IC50 [5, 11] [nM]	IC50 [5, 12] [nM]	IC50 [5, 13] [nM]	inhibition of the proteasomal CT-like pocket in tumor tissue [7] [%]	Compound	cells in early stage apoptosis [3]	apoptotic cells at late stage (upper right quadrant) ([3]; 24 h) [%]	concentration at which apoptotic morphological changes were observed [4] [µM]	TUNEL positive (staining of tumor) [6] [%]	p27 positive (immunohistochemical staining of tumor) [6] [%]	further results
approximately 3 fold	420 ± 30	490 ± 90	510 ± 70	3300 ± 400	2300 ± 800	3000 ± 900	14	C[N+](CC(=O)NCC(=O)OC(C)(C)C)=C1[S][Au-]([Br])([Br])[S]1 [AuD6, [Au^IIIBr2(dtc-Sar-AA-O(t-Bu))]]	7–9%	49	20	~75	~20	IC50 ([8]; MDA-MB-231, 72 h treatment): 13000 ± 1000 nM
–	–	–	–	–	–	–	–	N.N.[Cl][Pt][Cl] [cisplatin, cis-diammineplatinum(II) dichloride]	–	–	–	–	–	growth-inhibitory effect ([8]; MDA-MB-231, 100 µM, 24 h treatment): around 40%; IC50 (MTT, inhibition of cell proliferation) ([8]; MDA-MB-231, 24 h treatment): not reached; IC50 ([8]; MDA-MB-231, 24 h treatment): > 100000 nM
very little effect	290 ± 70	540 ± 80	610 ± 20	2900 ± 600	4500 ± 900	5700 ± 100	33	C[N+](CC(=O)NC(C)(C)C(=O)OC(C)(C)C)=C1[S][Au-]([Br])([Br])[S]1 [AuD8, [Au^IIIBr2(dtc-Sar-AA-O(t-Bu))]]	7–9%	74.1	10	~30	~95	apoptotic cells at late stage (upper right quadrant) ([3]; 16 h): 62.9%; concentration inducing p27 accumulation [9]: below 1 µM; inhibition of tumor growth compared to control ([10]; 27 days, p<0.05): 53%; tumor volume at end of treatment ([10]; day 27): 849±79 mm^3
–	–	–	–	–	–	–	–	Cc1c(C)c2c(c(C)c1O)CCC(C)(C(=O)O)O2 (centres unmarked) [Trolox, reference compound]	–	–	–	–	–	inhibition at 100 µM ([1]; Homo sapiens, MDA-MB-231, Trolox 100 µM, 24 h treatment, read-out: inhibition of tumor cell growth by Trolox alone): ~25%
